Laboratory results: patent US5149714A, “Antidepressants” (Merrell Dow Pharmaceuticals Inc., priority 1990, dated 1992)
Where two headings read alike, the source gives them in different places.

Tested on: β-adrenergic receptors
Conditions: Desipramine 5 mg/kg, i.p.; for [^3 H]-DHA Specifically Bound: mean ± SEM, six animals per group
Experimental: The number of β-adrenergic receptors in rat cerebral cortical membranes was measured after a 4 day and 14 day course of one of the following treatments:
a) saline control (intraperitoneal injection--i.p.)
c) fluoxetine (10 mg/kg/day, i.p.) or (10 mg/kg bid, i.p.)
Male Sprague-Dawley rats (175-200 g) were assigned randomly to one of the four treatment groups above and were treated as indicated for either 4 or 14 days. The animals were sacrificed 24 hours after their last treatment and cerebral cortical membranes were isolated. These membranes were assayed for β-adrenergic receptor number by the method of Bylund and Snyder [Mol. Pharmacol. 12, 568 (1976)] by measuring the amount of [3H]dihydro-alprenolol ([^3 H]-DHA) bound.

CNCCC(Oc1ccc(C(F)(F)F)cc1)c1ccccc1 (stereo not shown) [Fluoxetine, fluoxetine]
[^3 H]-DHA Specifically Bound, % Control (A) 14 days, Fluoxetine 10 mg/kg): 91 % Control | [^3 H]-DHA Specifically Bound (A) 14 days, Fluoxetine 10 mg/kg, saline 41.8 ± 1.4, * p < 0.05 vs saline, + P < 0.05 vs Desipramine): 37.9 ± 1.8 fmol/mg protein | [^3 H]-DHA Specifically Bound, % Control (B) 4 days, Fluoxetine 10 mg/kg bid): 95 % Control | [^3 H]-DHA Specifically Bound (B) 4 days, Fluoxetine 10 mg/kg bid, saline 54.6 ± 3.1, * p < 0.05 vs saline): 51.8 ± 1.7 fmol/mg protein
